Laboratory results published in the NIST ThermoML archive (doi:10.1016/j.jct.2013.08.018).
Values joined by “and” are separate entries in the source; they are usually repeats but may differ in a detail not shown here. Identical values can stand only once. Numbers after ± are expanded uncertainties.

Experiment: osmotic coefficient (dimensionless); mn = molality of the nth substance listed, in mol/kg
Settings: 298.15 K, 101 kPa, Liquid
[1] = commercial osmometer Knauer K-7000, m1 = 1
[2] = commercial osmometer Knauer K-7000, m1 = 3
[3] = commercial osmometer Gonotec 070, m1 = 0.5
[4] = commercial osmometer Gonotec 070, m1 = 1

SMILES: N.N.O=S(=O)(O)O [ammonium sulfate] + O
- osmotic coefficient [1]: 0.643 and 0.64 and 0.641
- osmotic coefficient [2]: 0.629 and 0.627 and 0.625

SMILES: [Br-].[Li+] [lithium bromide] + O
- osmotic coefficient [3]: 0.978 and 0.97
- osmotic coefficient [4]: 1.03 and 1.04

SMILES: [Cl-].[Li+] [lithium chloride] + O
- osmotic coefficient [3]: 0.928 and 0.955
- osmotic coefficient [4]: 0.987 and 0.978

SMILES: [I-].[Li+] [lithium iodide] + O
- osmotic coefficient [3]: 1 and 1.01
- osmotic coefficient [4]: 1.07 and 1.01

SMILES: [Br-].[K+] [potassium bromide] + O
- osmotic coefficient [3]: 0.907 and 0.905
- osmotic coefficient [4]: 0.919 and 0.917

SMILES: [Cl-].[K+] [potassium chloride] + O
- osmotic coefficient [3]: 0.905 ± 0.011
- osmotic coefficient [4]: 0.915 ± 0.01
- osmotic coefficient [1]: 0.895 and 0.897
- osmotic coefficient [2]: 0.938 and 0.935 and 0.936

SMILES: [I-].[K+] [potassium iodide] + O
- osmotic coefficient [3]: 0.916 and 0.923
- osmotic coefficient [4]: 0.934 and 0.927

SMILES: O=[N+]([O-])[O-].[K+] [potassium nitrate] + O
- osmotic coefficient [1]: 0.746 and 0.744 and 0.747
- osmotic coefficient [2]: 0.599 and 0.597 and 0.598

SMILES: [Br-].[Na+] [sodium bromide] + O
- osmotic coefficient [3]: 0.953 and 0.934
- osmotic coefficient [4]: 0.959 and 0.971

SMILES: [Cl-].[Na+] [sodium chloride] + O
- osmotic coefficient [1]: 0.927 and 0.925
- osmotic coefficient [2]: 1.05

SMILES: [I-].[Na+] [sodium iodide] + O
- osmotic coefficient [3]: 0.955 and 0.95
- osmotic coefficient [4]: 0.985 and 1

SMILES: O=[N+]([O-])[O-].[Na+] [sodium nitrate] + O
- osmotic coefficient [3]: 0.895 and 0.874
- osmotic coefficient [4]: 0.865 and 0.867
- osmotic coefficient [1]: 0.854 and 0.859
- osmotic coefficient [2]: 0.805 and 0.806

SMILES: O=S(=O)([O-])[O-].[Na+].[Na+] [sodium sulfate] + O
- osmotic coefficient [3]: 0.717 and 0.69
- osmotic coefficient [4]: 0.658 and 0.642
